Laboratory results as given in patent US20250058024A1, “INJECTABLE TOUGH AND VISCOELASTIC BTA HYDROGEL” (UNIVERSITEIT MAASTRICHT, priority 2021, published 2025).

Columns and labels:
[1] = Storage and handling stability of activated ester synthons; format: physicochemical; settings: for stability on handling in the lab: open handling in the lab, humid environment, 1H NMR
Source text: With the knowledge of proton chemical shift and peak splitting pattern of products, we were able to analyse the crude reaction mixtures and quickly determine the relative amount of the products in the reaction mixture. Molecule 1 produced a 57% yield of 5 (monosubstituted) when treated with 1.0 equiv nucleophile. The desymmetrization of 2 behaved similarly, and after separation and characterization the crude reaction mixture produced a 38% yield of 6 (monosubstituted derivative). […] When the same reaction was run for two equivalents of hexylamine, 1 produced 7 (disubstituted) in 48% yield and 2 produced 8 in 54% yield. […] With promising results, we then turned to desymmetrization of the penta-fluorophenol synthon, 3. […] After ^1H NMR analysis, we were able to determine the ratio of substituted derivatives in the crude reaction mixture (a similar pattern of doublet/triplets and singlets was observed as in the desymmetrization of 1). […] Both desymmetrization reactions yielded higher than statisctical yields and the products were able to be readily isolated via column chromatography. When developing a reactive synthon for desymmetrization, stability and scalability are also important factors to consider. […] Purification of 1 and 2 required a large volume of solvents owing to limited solubility (100s of mL for 10s of mg), while 3 offered a short one-step work up with good solubility.
Due to its ease of synthesis, stability, desymmetrization, and purification, 3 was determined to be the best candidate to work with moving forward. […] Furthermore, the stability of the F5Ph esters on 3 also offers easy separation of desymmetrized intermediates using flash column chromatography.
In order to test the applicability of the reaction methodology to different amine based neuclopehiles/side-arms, we attempted a few different amines. […] (Scheme 3).

[2] = cited from earlier work
[3] = under an inert (and dry) atmosphere

Compound: CCCCCCNC(=O)c1cc(C(=O)Oc2c(F)c(F)c(F)c(F)c2F)cc(C(=O)Oc2c(F)c(F)c(F)c(F)c2F)c1 [compound 9]
- stability on storage [1, 3]: stable over months

Compound: Oc1c(F)c(F)c(F)c(F)c1F [2,3,4,5,6-pentafluorophenol]
- pka [2]: 5.4

Compound: O=C1CCC(=O)N1O [N-hydroxy succinimide]
- pka [2]: 6.0

Compound: O=C(Oc1ccc([N+](=O)[O-])cc1)c1cc(C(=O)Oc2ccc([N+](=O)[O-])cc2)cc(C(=O)Oc2ccc([N+](=O)[O-])cc2)c1 [compound 2]
- stability on storage ([1]; in a desiccator): stable in a desiccator when stored for a year
- stability on handling in the lab [1]: started to hydrolyze

Compound: O=C(Oc1c(F)c(F)c(F)c(F)c1F)c1cc(C(=O)Oc2c(F)c(F)c(F)c(F)c2F)cc(C(=O)Oc2c(F)c(F)c(F)c(F)c2F)c1 [compound 3, 1,3,5-benzenetricarbonylpentafluoroester]
- stability on handling in the lab [1]: stable for more than two years
- stability on storage [1, 3]: stable over years

Compound: CCCCCCNC(=O)c1cc(C(=O)NCCCCCC)cc(C(=O)Oc2c(F)c(F)c(F)c(F)c2F)c1 [compound 10]
- stability on storage [1, 3]: stable over months

Compound: O=C(Oc1cccc([N+](=O)[O-])c1)c1cc(C(=O)Oc2cccc([N+](=O)[O-])c2)cc(C(=O)Oc2cccc([N+](=O)[O-])c2)c1 [compound 1]
- stability on storage ([1]; in a desiccator): stable in a desiccator when stored for a year
- stability on handling in the lab [1]: started to hydrolyze

Compound: O=[N+]([O-])c1cccc(O)c1 [3-nitrophenol]
- pka [2]: 8.36
